Source: ChEMBL document CHEMBL5634079, “Development of novel celastrol-ligustrazine hybrids as potent peroxiredoxin 1 inhibitors against lung cancer” (Eur J Med Chem, 2023)
The source made the active and inactive calls. The rule behind the calls is not given here.

What was measured:
MDA-MB-231 = assay: Antiproliferative activity against human MDA-MB-231 cells assessed as inhibition of cell growth incubated for 48 hrs by MTT assay; format: functional, cell-based; conditions: MDA-MB-231, 48 h
Lewis lung carcinoma [1] = assay: Antitumor activity against mouse Lewis lung carcinoma cell line implanted in C57BL/6J mouse assessed as tumor cell contraction at 0.5 to 1 mg/kg, ip administered every day for 19 days by H and E staining based analysis; format: functional, organism-based; conditions: dose 0.5-1 mg/kg, time 19.0 day
A549 [2] = assay: Induction of apoptosis in human A549 cells assessed as early apoptotic cells at 2 uM incubated for 48 hrs by Annexin V-FITC and PI staining based flow cytometric analysis (reference value: 0.76%); format: functional
[3] = Toxicity in C57BL/6J mouse implanted with mouse Lewis lung carcinoma cell line assessed as decrease in body weight at 0.5 to 1 mg/kg, ip administered every day for 19 days; format: organism-based; conditions: in vivo, 456 h, dose 0.5-1 mg/kg, time 19 day
A549 [4] = assay: Induction of apoptosis in human A549 cells assessed as viable cells at 2 uM incubated for 48 hrs by Annexin V-FITC and PI staining based flow cytometric analysis (reference value: 93.8%); format: functional; conditions: read-out: Activity
A549 [5] = assay: Downregulation of PRDX6 level in human A549 cells at 2 to 4 uM by Western blot analysis; format: functional, cell-based; conditions: dose 2-4 µM
A549 [6] = assay: Downregulation of PRDX5 level in human A549 cells at 2 to 4 uM by Western blot analysis; format: functional, cell-based; conditions: dose 2-4 µM
A549 [7] = assay: Antiproliferative activity against human A549 cells assessed as inhibition of cell growth incubated for 48 hrs by MTT assay; format: functional, cell-based; conditions: A549, 48 h
[8] = Toxicity in C57BL/6J mouse implanted with mouse Lewis lung carcinoma cell line assessed as heart damage at 0.5 to 1 mg/kg, ip administered every day for 19 days; format: organism-based; conditions: in vivo, 456 h, dose 0.5-1 mg/kg, time 19 day
A549 [9] = assay: Induction of apoptosis in human A549 cells assessed as increase in cleaved caspase-3 expression at 2 to 4 uM by Western blot analysis; format: functional, cell-based; conditions: dose 2-4 µM
[10] = Antiproliferative activity against human LTEP-a2 cells assessed as inhibition of cell growth incubated for 48 hrs by MTT assay; format: functional, cell-based; conditions: LTEP-A2, 48 h
A549 [11] = assay: Inhibition of cell invasion in human A549 cells incubated for 12 to 48 hrs by crystal violet staining based microscopic analysis; format: functional; conditions: dose 2-4 µM, time 12-48 hrs
A549 [12] = assay: Downregulation of PRDX4 level in human A549 cells at 2 to 4 uM by Western blot analysis; format: functional, cell-based; conditions: dose 2-4 µM
A549 [13] = assay: Induction of apoptosis in human A549 cells assessed as decrease in PCNA level at 2 to 4 uM by Western blot analysis; format: functional, cell-based; conditions: dose 2-4 µM
A549 [14] = assay: Induction of cell cycle arrest in human A549 cells assessed as decrease in CDK4 level at 2 to 4 uM by Western blot analysis; format: functional, cell-based; conditions: dose 2-4 µM
[15] = Toxicity in C57BL/6J mouse implanted with mouse Lewis lung carcinoma cell line assessed as spleen damage at 0.5 to 1 mg/kg, ip administered every day for 19 days; format: organism-based; conditions: in vivo, 456 h, dose 0.5-1 mg/kg, time 19 day
Lewis lung carcinoma [16] = assay: Antitumor activity against mouse Lewis lung carcinoma cell line implanted in C57BL/6J mouse assessed as tumor cell agglutination at 0.5 to 1 mg/kg, ip administered every day for 19 days by H and E staining based analysis; format: functional, organism-based; conditions: dose 0.5-1 mg/kg, time 19.0 day
A549 [17] = assay: Induction of apoptosis in human A549 cells assessed as decrease in PARP level at 2 to 4 uM by Western blot analysis; format: functional, cell-based; conditions: dose 2-4 µM
[18] = Antitumor activity against mouse Lewis lung carcinoma cell line implanted in C57BL/6J mouse assessed as tumor growth inhibition at 0.5 mg/kg, ip administered every day for 19 days; format: functional; conditions: 456 h, time 19 day, read-out: TGI
[19] = Toxicity in C57BL/6J mouse implanted with mouse Lewis lung carcinoma cell line assessed as kidney damage at 0.5 to 1 mg/kg, ip administered every day for 19 days; format: organism-based; conditions: in vivo, 456 h, dose 0.5-1 mg/kg, time 19 day
A549 [20] = assay: Inhibition of AKT phosphorylation in human A549 cells at 2 to 4 uM by Western blot analysis; format: cell-based; conditions: dose 2-4 µM
A549 [21] = assay: Induction of apoptosis in human A549 cells assessed as viable cells at 4 uM incubated for 48 hrs by Annexin V-FITC and PI staining based flow cytometric analysis (reference value: 93.8%); format: functional; conditions: read-out: Activity
A549 [22] = assay: Downregulation of PRDX1 gene expression in human A549 cells at 2 to 4 uM by Q-PCR analysis; format: functional, cell-based; conditions: dose 2-4 µM
A549 [23] = assay: Inhibition of ERK phosphorylation in human A549 cells at 2 to 4 uM by Western blot analysis; format: cell-based; conditions: dose 2-4 µM
A549 [24] = assay: Induction of apoptosis in human A549 cells assessed as increase in cleaved caspase-8 expression at 2 to 4 uM by Western blot analysis; format: functional, cell-based; conditions: dose 2-4 µM
A549 [25] = assay: Downregulation of PRDX3 level in human A549 cells at 2 to 4 uM by Western blot analysis; format: functional, cell-based; conditions: dose 2-4 µM
Lewis lung carcinoma [26] = assay: Antitumor activity against mouse Lewis lung carcinoma cell line implanted in C57BL/6J mouse assessed as nuclear chromatin marginalization at 0.5 to 1 mg/kg, ip administered every day for 19 days by H and E staining based analysis; format: functional, organism-based; conditions: dose 0.5-1 mg/kg, time 19.0 day
SK-HEP1 = assay: Antiproliferative activity against human SK-HEP1 cells assessed as inhibition of cell growth incubated for 48 hrs by MTT assay; format: functional, cell-based; conditions: SK-HEP1, 48 h
Peroxiredoxin-1 = target: T1, Peroxiredoxin-1 (Homo sapiens, UniProt Q06830); assay: Inhibition of PRDX1 (unknown origin) in presence of cofactor A/cofactor B/NADPH incubated for 25 mins; conditions: read-out: IC50
T1 sequence (Q06830 whole entry): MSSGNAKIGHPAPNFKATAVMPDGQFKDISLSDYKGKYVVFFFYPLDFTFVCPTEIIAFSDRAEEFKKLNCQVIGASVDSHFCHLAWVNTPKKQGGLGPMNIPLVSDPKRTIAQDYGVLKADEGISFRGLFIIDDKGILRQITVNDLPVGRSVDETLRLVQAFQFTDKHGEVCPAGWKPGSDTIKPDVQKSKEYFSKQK

A549 [27] = assay: Induction of apoptosis in human A549 cells assessed as increase in cleaved PARP expression at 2 to 4 uM by Western blot analysis; format: functional, cell-based; conditions: dose 2-4 µM
A549 [28] = assay: Induction of intracellular ROS generation in human A549 cells at 2 to 4 uM by DCFH-DA staining based flow cytometry analysis; format: functional, cell-based; conditions: dose 2-4 µM, time 6.0 hrs, TDE = time-dependent effect
A549 [29] = assay: Induction of cell cycle arrest in human A549 cells assessed as decrease in CDK2 level at 2 to 4 uM by Western blot analysis; format: functional, cell-based; conditions: dose 2-4 µM
A549 [30] = assay: Induction of apoptosis in human A549 cells assessed as necrotic cells at 4 uM incubated for 48 hrs by Annexin V-FITC and PI staining based flow cytometric analysis (reference value: 4.68%); format: functional
A549 [31] = assay: Induction of apoptosis in human A549 cells assessed as late apoptotic cells at 4 uM incubated for 48 hrs by Annexin V-FITC and PI staining based flow cytometric analysis (reference value: 0.73%); format: functional
A549 [32] = assay: Downregulation of PRDX1 level in human A549 cells at 2 to 4 uM by Western blot analysis; format: functional, cell-based; conditions: dose 2-4 µM
A549 [33] = assay: Inhibition of cell invasion in human A549 cells at 2 to 4 uM by crystal violet staining based microscopic analysis; format: functional; conditions: dose 2-4 µM, time 12-48 hrs, TDE = time-dependent effect

CC1=C(OC(=O)/C=C/c2ccccc2)C(=O)C=C2C1=CC=C1[C@@]2(C)CC[C@@]2(C)[C@@H]3C[C@](C)(C(=O)NCc4nc(C)c(C)nc4C)CC[C@]3(C)CC[C@]12C
IC50 (MDA-MB-231): 2.67 µM
Activity (Lewis lung carcinoma [1]): Active
Activity (A549 [2]): 3.13%
Activity [3]: Non-Toxic
viability at 2 µM (A549 [4]): 88.4%
Activity (A549 [5]): Active
Activity (A549 [6]): Active
IC50 (A549 [7]): 1.92 µM
Activity [8]: Non-Toxic
Activity (A549 [9]): Active
IC50 [10]: 2.93 µM
inhibition (A549 [11]): Dose-Dependent Effect
Activity (A549 [12]): Active
Activity (A549 [13]): Active
Activity (A549 [14]): Active
Activity [15]: Non-Toxic
Activity (Lewis lung carcinoma [16]): Active
Activity (A549 [17]): Active
inhibition in vivo at 0.5 mg/kg [18]: 69.9%
Activity [19]: Non-Toxic
inhibition (A549 [20]): Active
viability at 4 µM (A549 [21]): 45.1%
Activity (A549 [22]): Active
inhibition (A549 [23]): Active
Activity (A549 [24]): Active
Activity (A549 [25]): Active
Activity (Lewis lung carcinoma [26]): Active
IC50 (SK-HEP1): 2.42 µM
IC50 (Peroxiredoxin-1): 0.164 µM
Activity (A549 [27]): Active
Activity (A549 [28]): Tde
Activity (A549 [29]): Active
Activity (A549 [30]): 3.04%
Activity (A549 [31]): 33.4%
Activity (A549 [32]): Active
inhibition (A549 [33]): Tde
